Measurements taken from PubChem BioAssay (NCI).
Where “and” joins values, the source holds several entries; their conditions need not be identical. Equal entries are not always repeated.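 48-hour exposure; five concentrations; linearly interpolated endpoints. GI50 = concentration required for 50% inhibition of growth. Definition used: TGI = concentration required for complete inhibition of growth.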

Experiments:
Test in all cases: NCI-60 cell line screen, 48 h
A549 NSCLC = tested on: A549 NSCLC
ACHN renal = tested on: ACHN renal
HOP-62 NSCLC = tested on: HOP-62 NSCLC
HS 578T breast = tested on: HS 578T breast
IGROV1 ovarian = tested on: IGROV1 ovarian
NCI-H522 lung = tested on: NCI-H522 lung
NCI/ADR-RES ovarian = tested on: NCI/ADR-RES ovarian
RXF 393 renal = tested on: RXF 393 renal
T-47D breast = tested on: T-47D breast
U251 CNS = tested on: U251 CNS

CC1(C)CC2(C)OC2C2(C1)N=NC(=Nc1ccccc1)O2 (centres undefined)
GI50 (A549 NSCLC): 11 µM | TGI (A549 NSCLC): 39.5 µM | GI50 (ACHN renal): 2 µM | TGI (ACHN renal): 6.12 µM | GI50 (HOP-62 NSCLC): 8.76 µM | TGI (HOP-62 NSCLC): 30.4 µM | GI50 (HS 578T breast): 17.3 µM | TGI (HS 578T breast): 71.7 µM | GI50 (IGROV1 ovarian): 2.48 µM | TGI (IGROV1 ovarian): 5.99 µM | GI50 (NCI-H522 lung): 1.61 µM | TGI (NCI-H522 lung): 3.33 µM | GI50 (NCI/ADR-RES ovarian): 4.44 µM | TGI (NCI/ADR-RES ovarian): 55.2 µM | GI50 (RXF 393 renal): 2.19 µM | TGI (RXF 393 renal): 6.26 µM | GI50 (T-47D breast): 2.83 µM | TGI (T-47D breast): 14.4 µM | GI50 (U251 CNS): 13 µM | TGI (U251 CNS): 26 µM

CC(=O)N[C@@H]1CCC[C@H](C(=O)Nc2cc(-c3cnn4c3CC(C)(C)C4)c(Cl)cn2)C1
GI50 (A549 NSCLC): < 0.0108 µM | TGI (A549 NSCLC): > 100 µM | GI50 (ACHN renal): < 0.015 µM | TGI (ACHN renal): > 100 µM | GI50 (HOP-62 NSCLC): < 0.0113 µM | TGI (HOP-62 NSCLC): > 100 µM | GI50 (HS 578T breast): < 0.01 µM | TGI (HS 578T breast): 20.1 µM | GI50 (IGROV1 ovarian): < 0.01 µM | TGI (IGROV1 ovarian): > 100 µM | GI50 (NCI-H522 lung): 0.013 µM | TGI (NCI-H522 lung): 0.0588 µM | GI50 (NCI/ADR-RES ovarian): 0.199 µM | TGI (NCI/ADR-RES ovarian): > 100 µM | GI50 (RXF 393 renal): < 0.01 µM | TGI (RXF 393 renal): < 0.01 µM | GI50 (T-47D breast): 0.0101 µM | TGI (T-47D breast): 0.719 µM | GI50 (U251 CNS): < 0.01 µM | TGI (U251 CNS): > 100 µM

CN(C)c1ccc(Sc2ccc3nc(N)nc(N)c3c2)cc1
GI50 (A549 NSCLC): 0.139 µM | TGI (A549 NSCLC): 12 µM | GI50 (ACHN renal): 0.52 µM | TGI (ACHN renal): 7.39 µM | GI50 (HOP-62 NSCLC): 0.884 µM | TGI (HOP-62 NSCLC): 15.6 µM | GI50 (HS 578T breast): 4.72 µM | TGI (HS 578T breast): 27.4 µM | GI50 (IGROV1 ovarian): 0.67 µM | TGI (IGROV1 ovarian): 14.2 µM | GI50 (NCI-H522 lung): 0.934 µM | TGI (NCI-H522 lung): 11.7 µM | GI50 (NCI/ADR-RES ovarian): 0.743 µM | TGI (NCI/ADR-RES ovarian): 14.9 µM | GI50 (RXF 393 renal): 1.06 µM | TGI (RXF 393 renal): 11.3 µM | GI50 (T-47D breast): 1.66 µM | TGI (T-47D breast): 4.82 µM | GI50 (U251 CNS): 0.446 µM | TGI (U251 CNS): 4.14 µM

CCc1nc(N)nc(N)c1-c1ccc([N+](=O)[O-])c(Cl)c1
TGI (A549 NSCLC): > 80.8 µM | TGI (ACHN renal): > 100 µM | TGI (HOP-62 NSCLC): > 100 µM | TGI (HS 578T breast): > 100 µM | TGI (IGROV1 ovarian): > 100 µM | TGI (NCI-H522 lung): > 52.9 µM | TGI (NCI/ADR-RES ovarian): > 100 µM | TGI (RXF 393 renal): > 100 µM | TGI (T-47D breast): > 100 µM | TGI (U251 CNS): > 100 µM

O=C(CC(C(=O)O)N1CCOCC1)c1ccccc1 (centres undefined)
TGI (A549 NSCLC): > 100 µM | TGI (ACHN renal): 30.7 µM | TGI (HOP-62 NSCLC): 86.9 µM | TGI (HS 578T breast): 88.9 µM | TGI (IGROV1 ovarian): 63.2 µM | TGI (NCI-H522 lung): > 100 µM | TGI (NCI/ADR-RES ovarian): > 100 µM | TGI (RXF 393 renal): 34.3 µM | TGI (T-47D breast): > 100 µM | TGI (U251 CNS): 30.9 µM

COc1cc(OC)cc(N2CCN(C(=O)Nc3nc4cc(F)ccc4nc3OC)CC2)c1
GI50 (A549 NSCLC): 0.0367 µM and 0.0449 µM and 0.0357 µM | TGI (A549 NSCLC): > 100 µM | GI50 (ACHN renal): 0.0129 µM and 0.0608 µM and 0.0408 µM | TGI (ACHN renal): 25.6 µM and > 100 µM | GI50 (HOP-62 NSCLC): 0.0346 µM and 0.0573 µM and 0.051 µM | TGI (HOP-62 NSCLC): 58.7 µM and 25.2 µM | GI50 (HS 578T breast): < 0.01 µM and 0.027 µM and 0.0388 µM | TGI (HS 578T breast): 33.2 µM and > 100 µM | GI50 (IGROV1 ovarian): 0.0441 µM and 0.0988 µM and 0.062 µM | TGI (IGROV1 ovarian): 32.3 µM and 39.5 µM | GI50 (NCI-H522 lung): 0.012 µM and 0.0225 µM | TGI (NCI-H522 lung): 0.534 µM and 0.581 µM and 0.146 µM | GI50 (NCI/ADR-RES ovarian): < 0.0148 µM and 0.0274 µM and 0.012 µM | TGI (NCI/ADR-RES ovarian): 45 µM and 28.8 µM | GI50 (RXF 393 renal): < 0.01 µM and 0.016 µM | TGI (RXF 393 renal): 40.7 µM and 66.1 µM | GI50 (T-47D breast): 0.832 µM | TGI (T-47D breast): 43.8 µM | GI50 (U251 CNS): 0.0356 µM and 0.0448 µM and 0.0428 µM | TGI (U251 CNS): 27.3 µM and 20.2 µM

CCCCCCCCCCCCNC(=O)[C@H]1CSC(c2ccc(OC)c(F)c2)N1 (some centres undefined)
GI50 (A549 NSCLC): 1.89 µM | TGI (A549 NSCLC): 3.69 µM | GI50 (ACHN renal): 1.63 µM | TGI (ACHN renal): 3 µM | GI50 (HOP-62 NSCLC): 0.273 µM | TGI (HOP-62 NSCLC): 0.748 µM | GI50 (HS 578T breast): 0.241 µM | TGI (HS 578T breast): 0.577 µM | GI50 (IGROV1 ovarian): 0.325 µM | TGI (IGROV1 ovarian): 0.902 µM | GI50 (NCI-H522 lung): 1.82 µM | TGI (NCI-H522 lung): 3.64 µM | GI50 (NCI/ADR-RES ovarian): 1.61 µM | TGI (NCI/ADR-RES ovarian): 3.52 µM | GI50 (RXF 393 renal): 0.867 µM | TGI (RXF 393 renal): 2.2 µM | GI50 (T-47D breast): 1.75 µM | TGI (T-47D breast): 3.66 µM | GI50 (U251 CNS): 1.89 µM | TGI (U251 CNS): 3.66 µM

Nc1ncnc2c1ncn2Cc1ccc(C23CC4CC(CC(C4)C2)C3)c(O)c1
GI50 (A549 NSCLC): 6.52 µM | TGI (A549 NSCLC): 77.4 µM | GI50 (ACHN renal): 15.6 µM | TGI (ACHN renal): > 100 µM | GI50 (HOP-62 NSCLC): 9.06 µM | TGI (HOP-62 NSCLC): 34.6 µM | GI50 (HS 578T breast): 10.7 µM | TGI (HS 578T breast): 69.7 µM | GI50 (IGROV1 ovarian): 27.2 µM | TGI (IGROV1 ovarian): > 100 µM | GI50 (NCI-H522 lung): 25.6 µM | TGI (NCI-H522 lung): > 100 µM | GI50 (NCI/ADR-RES ovarian): > 100 µM | TGI (NCI/ADR-RES ovarian): > 100 µM | GI50 (RXF 393 renal): 8.06 µM | TGI (RXF 393 renal): 39.7 µM | GI50 (T-47D breast): 58.7 µM | TGI (T-47D breast): > 100 µM | GI50 (U251 CNS): 14.8 µM | TGI (U251 CNS): 32.6 µM

CC(C)(C)NCCC(O)c1cc(C(F)(F)F)nc2c(C(F)(F)F)cccc12 (centres undefined)
TGI (A549 NSCLC): 13.5 µM | TGI (ACHN renal): 21.1 µM | TGI (HOP-62 NSCLC): 14.5 µM | TGI (HS 578T breast): 34.4 µM | TGI (IGROV1 ovarian): 23.8 µM | TGI (NCI-H522 lung): 25.1 µM | TGI (NCI/ADR-RES ovarian): 15.2 µM | TGI (RXF 393 renal): 19.2 µM | TGI (T-47D breast): 30.9 µM | TGI (U251 CNS): 20.2 µM

O=[N+]([O-])O.[NH-]C1CCCCC1[NH-].[NH-]C1CCCCC1[NH-].[NH-]C1CCCCC1[NH-].[OH-].[OH-].[OH-].[Pt+4].[Pt+4].[Pt+4] (centres undefined)
GI50 (A549 NSCLC): 0.319 µM | TGI (A549 NSCLC): 31.3 µM | GI50 (ACHN renal): 0.164 µM | GI50 (HOP-62 NSCLC): 2.23 µM | TGI (HOP-62 NSCLC): > 57.8 µM | GI50 (HS 578T breast): 12.1 µM | TGI (HS 578T breast): > 61.9 µM | GI50 (IGROV1 ovarian): 0.258 µM | TGI (IGROV1 ovarian): 19.4 µM | GI50 (NCI-H522 lung): 0.212 µM | TGI (NCI-H522 lung): 2.98 µM | GI50 (NCI/ADR-RES ovarian): 1.15 µM | TGI (NCI/ADR-RES ovarian): > 59.3 µM | GI50 (RXF 393 renal): 1.2 µM | TGI (RXF 393 renal): 17.3 µM | GI50 (T-47D breast): 1.08 µM | TGI (T-47D breast): > 83.9 µM | GI50 (U251 CNS): 0.513 µM | TGI (U251 CNS): 38.1 µM

CC(C)n1nc(C#Cc2cccc(NC(=O)c3cccc(C(F)(F)F)c3)c2)c2c(N)ncnc21
GI50 (A549 NSCLC): 3.29 µM | TGI (A549 NSCLC): 64.4 µM | GI50 (ACHN renal): 1.01 µM | TGI (ACHN renal): 5.72 µM | GI50 (HOP-62 NSCLC): 1.11 µM | TGI (HOP-62 NSCLC): 6.71 µM | GI50 (HS 578T breast): 0.216 µM | TGI (HS 578T breast): 1.88 µM | GI50 (IGROV1 ovarian): 0.333 µM | TGI (IGROV1 ovarian): 1.59 µM | GI50 (NCI-H522 lung): 1.83 µM | TGI (NCI-H522 lung): 9.11 µM | GI50 (NCI/ADR-RES ovarian): 2.83 µM | TGI (NCI/ADR-RES ovarian): > 100 µM | GI50 (RXF 393 renal): 1.02 µM | TGI (RXF 393 renal): 2.49 µM | GI50 (T-47D breast): 3.22 µM | TGI (T-47D breast): 17.5 µM | GI50 (U251 CNS): 3.05 µM | TGI (U251 CNS): 69.4 µM
